Laboratory results from patent US20210213120A1, “KRAS PEPTIDE VACCINE COMPOSITIONS AND METHOD OF USE” (THE MEDICAL COLLEGE OF WISCONSIN , INC., priority 2017, published 2021).
No end group written: not given here.

What was measured:
[1] = tested on: tumor infiltrated CD8+ cells and Tregs; test: T cells in spleen or tumor of K-rasLA1 mice; type: in vivo, mouse; conditions: 4~5 weeks after treatment
Procedure: FIG. 8. UAB30 increased tumor infiltrated CD8+ cells and decreased Tregs in tumor. K-rasLA1 mice were treated with control, Kras-vaccine, UAB30 alone or Kras-vaccine and UAB30 and the % CD4+ or CD8+ T cells were assessed in the spleen or tumor of mice at 4˜5 weeks after treatment.
K-rasLA1 mouse develops premalignant lung lesions that progress to multifocal lung adenocarcinomas due to somatic mutations in K-ras, which occurs at the birth of these mice through DNA recombination. […] In this model, vaccination was given when mice were 8˜10 weeks old, at which numerous pleural lesions already formed in lung, yet K-ras vaccination alone significant inhibited lung tumor multiplicity and load in K-rasLA1 mice, decreased tumor numbers from ˜12 to ˜7 per mouse, and tumor load from ˜55 mm3 to ˜30 mm3 (FIG. 7).

[2] = tested on: K-ras-driven lung cancer syngraft; test: K-ras-driven lung cancer syngraft tumor model (avasimibe combination); type: in vivo, mouse; conditions: tumor volume over time
Procedure: FIG. 10. K-ras vaccine synergize with Avasamibe to inhibit lung tumor progression in K-ras-driven lung cancer syngraft tumor model.
Mice were treated with the combination of K-ras multi-peptide vaccine with avasimibe in a K-ras-driven lung cancer syngraft model. Tumor volume was assessed over time post tumor cell inoculation.
Therefore, we tested the combination of K-ras multi-peptide vaccine with avasimibe in a K-ras-driven lung cancer syngraft model.

[3] = Immune response to KRAS peptides (Table 1)
[4] = tested on: IFN-γ response; test: IFN-γ ELISPOT of PD-1 and PD-L1 peptides in naïve mice; type: in vivo, mouse
Procedure: The immunogenicity of PD-1 and PD-L1 were tested in naïve mice using the IFN-γ ELISPOT assay. (P<0.0001, data not shown)
Cancer cells are naturally attacked by cells of the immune system, but can induce a state of tolerance whereby they escape from immune attack, for which immune checkpoint proteins such as PD1, VISTA are important ones mediating this immune escape. Interaction of PD-1 on activated T cells and PD-L1 on cancer cells lead to inhibition of the cytotoxic T cells. Investigators have recently identified spontaneous T cell reactivity against PD-L1 in the tumor microenvironment and in the peripheral blood of patients with metastatic melanoma and healthy donors, PD-L1 reactive CD8 T cells are cytotoxic and can kill cancer cells and immune regulatory cells in vitro, and responsive PD-L1 peptide vaccine has therefore under development. Here, by using a multi-scoring system that combines multiple MHC class II peptide binding algorithms, we identified immunogenic “hotspots”, and selected 7 peptides for PD-L1 and 11 peptides for PD-1 from these immunogenic “hot” regions (see Table 3). We then tested their immunogenicity in naïve mice using the IFN-γ ELISPOT assay.

[5] = tested on: IFN-γ-secreting splenocytes; test: IFN-γ ELISPOT screen of single KRAS peptides in naïve mice; type: in vivo, mouse; conditions: for IFN-γ response (ELISPOT): naïve mice vaccinated with single KRAS peptide; for IFN-γ response (ELISPOT) / mean IFN-γ-secreting cells: splenocytes pulsed 72 h
Excerpt: FIG. 1A-1C. In vivo screen for peptide candidates by ELISPOT in naïve mice. (A) Immunogenic heatmap for identifying peptides associated with highest binding affinity across multiple MHC class II alleles. Colors represent percentile to highest score from three algorithms for each amino acid from dark red to light blue in the order of rank scores. Color strata are as follows: dark red ≥75% of the highest score; red=50˜75% of the highest score; orange=40˜50% of highest score; yellow=30˜40% of the highest score; green=20˜30% of the highest score; blue ≤20% of the highest score. (B) Representative ELISPOT results showing T cell responses to specific KRAS peptides from mouse splenocytes stimulated with no antigen (first row), negative control peptide (HIV peptide, second row), target peptide (third row), or positive control ConA (fourth row). (C) Quantified ELISPOT results. Then, splenocytes were collected and pulsed with no antigen control, each single KRAS peptide, or negative control peptide (HIV peptide), or positive control ConA. After 72 h of incubation, the ELISPOT assay was performed, plates were scanned, and spot numbers were statistically analyzed. Open bar, ELISPOT reads from KRAS peptide vaccinated animals pulsed with specific KRAS peptide; blue bar, ELISPOT reads from animals injected only with adjuvant and pulsed with specific KRAS peptide; black bar, ELISPOT reads from three most significant KRAS peptide vaccinated animals. Data are shown as the mean±SE of three replicate wells per group, n=5.
Mice were vaccinated with 50 μg of each peptide. Phosphate buffered saline (PBS) was added to bring the total volume to 50 μL/mouse. An equal amount of adjuvant (Complete Freund's Adjuvant or Incomplete Freund's Adjuvant) was added to bring the total volume to 100 μL/mouse. Mice were injected subcutaneously on the shoulder at 7 weeks of age, and boosting vaccination was given every two weeks for the first three boosting and every 4 weeks for the last three boosting as shown in FIG. 2A. Transgene Kras was initiated with Dox diet (625 mg/kg diet) one week after the fourth vaccination, and Dox diet was given throughout of the study.
(§1) Cell suspensions from whole spleens were filtered through a 70 μm cell strainer (BD) and subjected to red blood cell lysis using ACK lysis buffer. 1.5˜3.0×10^4 cells were plated into individual wells of a MAIPS4510 Multiscreen 96 well plate previously coated with anti-interferon γ […] antibody and containing media with either peptide, positive control (concanavalin A) or negative control (HIV peptide, or no antigen). After 72 hours, plates were washed and a secondary antibody (BD) was added and incubated on the plate overnight at 4 degrees Celsius. Wells were then washed with PBS and HRP streptavidin was added. Following 1 h incubation, the plate was developed using AEC substrate for between 5-25 minutes. The plate was subsequently gently washed under cold running tap water. When dry, an automated plate reader system (CTL Technologies) was used to image the plates and quantify spot number.
Using a multi-scoring system that combines multiple MHC class II peptide binding algorithms, immunogenic “hotspots” were identified; 11 peptides (Table 2) were selected; their immunogenicity was evaluated in naïve mice using the IFN-γ ELISPOT assay as previously reported. The KRAS 17-mer peptide (p5-21) that covers the mutation in codon 12, and its G12D mutant (p5-21 G12D) were also selected as robust peptides to stimulate immune response. […] To include peptides against both wild-type and mutant KRAS, also based on a high degree of homology between human and mouse KRAS, peptides p5-21 (SEQ ID NO:2), p5-21 G12D (SEQ ID NO:1), p17-31 (SEQ ID NO:4), and p78-92 (SEQ ID NO:6) were chosen to formulate a multipeptide KRAS vaccine in the preventive efficacy study.

[6] = tested on: IFN-γ-secreting splenocytes; test: IFN-γ ELISPOT of splenocytes from vaccinated CCSP-KRAS^G12D mice at end of study (epitope spreading); type: in vivo, mouse; conditions: for mean IFN-γ-secreting cell responses: splenocytes of mice vaccinated with KRAS combination vaccine, pulsed with the named peptide(s) 72 h
Procedure: FIG. 3. Epitope spreading tested by IFN-γ ELISPOT. Mice were vaccinated with the KRAS combination vaccine (p5-21, p5-21 G12D, p17-31, and p78-92). Then splenocytes were collected and pulsed with KRAS combo peptides, each single KRAS peptide, unvaccinated KRAS peptide p75-89, combo IGFR peptides, or Tert peptide. After 72 h of incubation, the ELISPOT assay was performed, plates were scanned, and spot numbers were statistically analyzed.
as §1
In order to examine the specific immunity that confers the protective effect of the KRAS vaccine, an IFN-γELISPOT assay of splenocytes isolated from adjuvant alone and vaccinated CCSP-KRAS^G12D mice was performed at the end of the study. […] The mean IFN-γ-secreting cell responses were 216 in the pooled KRAS peptides group, and 36, 40, 116, and 52 to individual peptides p5-21, p5-21 G12D, p17-31, and p78-92, respectively. […] There was no evidence of general immune hyperactivity stimulation as none of the animals responded to an irrelevant naïve antigen, further supporting the notion that the immune response detected in the vaccinated group was highly specific to the KRAS vaccine.

Compound: CC(=C/C=C/C(C)=C/C(=O)O)/C=C1\CCCc2ccccc21 [UAB30]
- Tregs in tumors [1]: decreased
- infiltrated CD8+ cells in tumors [1]: significantly increased

Compound: CC(C)c1cc(C(C)C)c(CC(=O)NS(=O)(=O)Oc2c(C(C)C)cccc2C(C)C)c(C(C)C)c1 [avasimibe]
- tumor growth inhibition [2]: effective in inhibiting tumor growth

Compound: AGGVGKSALTIQLLQNHFVDE [p11s]
- Immune response [3]: Yes

Compound: AGGVGKSALTIQLLQNHFVDEYD [p11]
- Immune response [3]: Yes

Compound: CHLLRAFTITAPKDL [mPDL1-13]
- IFN-γ response, peptides against PD-L1 [4]: strongest IFN-γ response

Compound: DAFYTLVREIRKHKE [p154-168]
- IFN-γ response (ELISPOT) [5]: much weaker response

Compound: FLCVFAINNTKSFED [p78-92]
- mean IFN-γ-secreting cell responses [6]: 52
- IFN-γ response (ELISPOT) [5]: strongest IFN-γ response
- Immune response [3]: Yes

Compound: FYTLVREIRKHKEKM [p156-170]
- IFN-γ response (ELISPOT) [5]: strongest IFN-γ response
- Immune response [3]: Yes

Compound: GEGFLCVFAINNTKS [p75-89]
- IFN-γ response to non-vaccine KRAS peptide ([6]; splenocytes of vaccinated animals): strong response
- IFN-γ response (ELISPOT) [5]: much weaker response

Compound: KLVVVGADGVGKSALTI [p5-21 G12D]
- mean IFN-γ-secreting cell responses [6]: 40
- mean IFN-γ-secreting cells ([5]; naïve mice): around 100 spots per well (SPW)
- Immune response [3]: Yes

Compound: KLVVVGAGGVGKSAL [p5-19]
- response relative to p5-21 ([5]; IFN-γ ELISPOT, naïve mice): less than 50%

Compound: KLVVVGAGGVGKSALTI [p5-21]
- mean IFN-γ-secreting cell responses [6]: 36
- IFN-γ response (ELISPOT) [5]: strongest IFN-γ response
- mean IFN-γ-secreting cells ([5]; naïve mice): around 100 spots per well (SPW)
- Immune response [3]: Yes

Compound: KLVVVGAVGVGKSALTI [P5-21G12V]
- Immune response [3]: Yes

Compound: LAVFCSTSMSEARGA [mPD1-193]
- IFN-γ response, peptides for PD-1 [4]: strongest IFN-γ response

Compound: LPATHPPQNRTHWVL [mPDL1228]
- IFN-γ response, peptides against PD-L1 [4]: strongest IFN-γ response
- IFN-γ response, peptides for PD-1 [4]: strongest IFN-γ response

Compound: PQHSNFRGRASLPKD [mPDL1-76]
- IFN-γ response, peptides against PD-L1 [4]: strongest IFN-γ response

Compound: QDARFQIIQLPNRHD [mPD1-94]
- IFN-γ response, peptides for PD-1 [4]: strongest IFN-γ response

Compound: SALTIQLIQNHFVDE [p17-31]
- mean IFN-γ-secreting cell responses [6]: 116
- IFN-γ response (ELISPOT) [5]: strongest IFN-γ response
- Immune response [3]: Yes

Compound: SWQSGWLLEVPNGPW [mPD1-21]
- IFN-γ response, peptides for PD-1 [4]: strongest IFN-γ response

Compound: TgegFLCVFAINNTKSFED (TGEGFLCVFAINNTKSFED) [P75]
- Immune response [3]: Yes

Compound: VGAGGVGKSALTIQLLQNHFVDEYD [p9]
- Immune response [3]: Yes

Compound: kSALTIQLIQNHFVDEyd (KSALTIQLIQNHFVDEYD; not fully specified (residues 1, 17, 18); printed as kSALTIQLIQNHFVDEyd) [P16]
- Immune response [3]: Yes
